Each structure is given as a SMILES string.

This is an account of results in patent US11072617B2, “Bicyclic sulfones and sulfoxides and methods of use thereof” (Genentech, Inc., priority 2017, dated 2021).

The target of this experiment is human RIP1 kinase domain (2-375) (Homo sapiens (Human), UniProt Q13546). Description: RIP1 kinase inhibition biochemical assay (Transcreener ADP, fluorescence polarization). The conditions noted are these: Ki app from tight-binding Morrison equation; 50 nM enzyme, 50 uM ATP, 2 hours incubation. The protocol: RIP1 Kinase Inhibition Assays (Biochemical Assay)
The compounds of the present invention were tested for their capacity to inhibit RIP1K activity as described below.
The ability of the receptor interacting protein kinase (RIPK1) to catalyze the hydrolysis of adenosine-5′-triphosphate (ATP) is monitored using the Transcreener ADP (adenosine-5′-diphosphate) assay (BellBrook Labs). Purified human RIP1 kinase domain (2-375) (50 nM) derived from a baculovirus-infected insect cell expression system is incubated with test compounds for 2 hours in 50 mM Hepes buffer (pH 7.5) containing 30 mM MgCl2, 1 mM dithiothreitol, 50 uM ATP, 0.002% Brij-35, and 0.5% dimethyl sulfoxide (DMSO). Reactions are quenched by the addition of 1× Bell Brooks Stop buffer B (20 mM Hepes (ph7.5), 40 mM ethylenediaminetetraacetic acid and 0.02% Brij-35) containing an additional 12 mM EDTA and 55 ug/mL ADP2 antibody and 4 nM ADP-AlexaFluor® 633 tracer. The tracer bound to the antibody is displaced by the ADP generated during the RIP1K reaction, which causes a decrease in fluorescence polarization that is measured by laser excitation at 633 nm with a FP microplate reader M1000. Fractional activity was plotted against test article concentration. Using Genedata Screener software (Genedata; Basel, Switzerland), the data were fit to the tight-binding apparent inhibition constant (Ki^app) Morrison equation [Williams, J. W. and Morrison, J. F. (1979) The kinetics of reversible tight-binding inhibition. Methods Enzymol 63: 437-67]. The following equation was used to calculate fractional activity and Ki^app:
[formula] where [E]T and [I]T are the total concentrations of active enzyme and test article, respectively.
Exemplary compounds of the present invention are provided in Table 1 along with their physiochemical characterization and in vitro RIP1 kinase inhibitory activity data. “Method” in the first column of each table refers to the synthetic method(s) used to prepare each compound as shown in the Examples above. In certain examples, chiral column retention times (min) are provided for certain stereoisomers. Unless otherwise specified, the stereochemistry shown in each structure represents relative configuration of a single stereoisomer, and absolute configuration (i.e., “R” and/or “S”) is arbitrarily assigned. In some embodiments, where the Method is described to include the separation of stereoisomers, a single stereoisomer of a compound of Table 1 is provided.
On the technique in general: Fluorescence polarisation rises when a labelled molecule tumbles more slowly, as on binding a larger partner.

Chain of human RIP1 kinase domain (2-375) (Q13546 2-375): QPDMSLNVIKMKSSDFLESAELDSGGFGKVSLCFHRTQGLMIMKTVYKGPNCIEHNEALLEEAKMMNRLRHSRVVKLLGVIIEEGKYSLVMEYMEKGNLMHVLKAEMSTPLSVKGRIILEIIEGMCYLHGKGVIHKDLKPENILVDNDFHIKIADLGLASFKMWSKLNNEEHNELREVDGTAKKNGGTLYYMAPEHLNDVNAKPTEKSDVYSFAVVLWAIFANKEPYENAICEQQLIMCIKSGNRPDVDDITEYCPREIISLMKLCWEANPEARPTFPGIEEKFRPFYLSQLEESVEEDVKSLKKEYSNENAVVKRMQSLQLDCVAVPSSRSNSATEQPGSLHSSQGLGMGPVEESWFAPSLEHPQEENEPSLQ

The compound `COC[S+]([O-])c1nc2n(n1)[C@H](c1ccccc1)C[C@@H]2F` (stereo partly drawn) [Example 115, (5S,7S)-7-fluoro-2-(methoxymethylsulfinyl)-5-phenyl-6,7-dihydro-5H-pyrrolo[1,2-b][1,2,4]triazole] displayed a Ki of 31 nM.

Compound `O=S(=O)(c1cc2n(n1)[C@H](c1ccccc1)C[C@@H]2F)C1CC1` [Example 31, (4S,6S)-2-cyclopropylsulfonyl-4-fluoro-6-phenyl-5,6-dihydro-4H-pyrrolo[1,2-b]pyrazole] came in with a Ki of 10 nM.

`N#CC[S@+]([O-])c1nc2n(n1)[C@H](c1ccccc1F)C[C@@H]2F` (single isomer, unassigned) [Example 95]: the Ki was determined as 190 nM.

`[O-][S@+](c1nc2n(n1)[C@H](c1cccc(F)c1)C[C@@H]2F)C(F)F` (single isomer, unassigned) [Example 182]: the Ki was found to be 6 nM.

For the compound `N#CC[S@@+]([O-])c1cc2n(n1)[C@H](c1ccccc1)C[C@@H]2F` (single isomer, unassigned) [Example 91], the Ki came to 150 nM.

`[O-][S@@+](CF)c1nc2n(n1)[C@H](c1cccc(F)c1)C[C@@H]2F` (single isomer, unassigned) [Example 82] showed a Ki of less than 5 nM.

Compound `N#CC[S@+]([O-])c1nc2n(n1)[C@H](c1cccc(F)c1)C[C@@H]2F` (single isomer, unassigned) [Example 97] showed a Ki of 190 nM.

Regarding `[O-][S@@+](c1nc2n(n1)[C@H](c1ccccc1)C[C@@H]2F)C(F)F` [Example 21, (5S,7S)-2-[(S)-difluoromethylsulfinyl]-7-fluoro-5-phenyl-6,7-dihydro-5H-pyrrolo[1,2-b][1,2,4]triazole], the Ki is 100 nM.

Turning to `CCS(=O)(=O)c1nc2n(n1)[C@H](c1ccccc1)C[C@@H]2F` (single isomer, unassigned) [Example 108], the Ki is 11 nM.

The compound `O=S(=O)(c1nc2n(n1)[C@H](c1cc(F)cc(Cl)c1)C[C@@H]2F)C1CC1F` (stereo in doubt) [Example 199, (5S,7S)-5-(3-chloro-5-fluoro-phenyl)-7-fluoro-2-[(1S,2S)-2-fluorocyclopropyl]sulfonyl-6,7-dihydro-5H-pyrrolo[1,2-b][1,2,4]triazole] displayed a Ki of 8 nM.

Turning to `CS(=O)(=O)c1nc2n(n1)[C@H](c1ccccc1)C[C@@H]2F` (single isomer, unassigned) [Example 106], the Ki worked out at 22 nM.

`[O-][S+](c1nc2n(n1)[C@H](c1ccccc1)C[C@@H]2F)C(F)F` (mixture of isomers) [Example 13, Rac-(5S,7S)-2-((difluoromethyl)sulfinyl)-7-fluoro-5-phenyl-6,7-dihydro-5H-pyrrolo[1,2-b][1,2,4]triazole] yielded a Ki of 42 nM.

As to `O=S(=O)(c1nc2n(n1)[C@H](c1ccccc1)C[C@@H]2F)C1CCOC1` (stereo partly drawn) [Example 166, (5S,7S)-7-fluoro-5-phenyl-2-tetrahydrofuran-3-ylsulfonyl-6,7-dihydro-5H-pyrrolo[1,2-b][1,2,4]triazole], the Ki was 43 nM.

For `CC(F)S(=O)(=O)c1nc2n(n1)[C@H](c1ccccc1)C[C@@H]2F` (stereo partly drawn) [Example 158, (5S,7S)-7-fluoro-2-(1-fluoroethylsulfonyl)-5-phenyl-6,7-dihydro-5H-pyrrolo[1,2-b][1,2,4]triazole], the Ki was found to be 13 nM.

In the case of `[O-][S@+](CF)c1nc2n(n1)[C@H](c1c(F)cccc1F)C[C@@H]2F` (single isomer, unassigned) [Example 81], the Ki came to 290 nM.

As to `O=S(=O)(c1nc2n(n1)[C@H](c1cc(F)cc(F)c1)C[C@@H]2F)C(F)F` (single isomer, unassigned) [Example 69], the Ki was less than 5 nM.

For `N#CC[S+]([O-])c1nc2n(n1)[C@H](c1ccccc1)C[C@@H]2F` (stereo partly drawn) [Example 102, 2-[[(5S,7S)-7-fluoro-5-phenyl-6,7-dihydro-5H-pyrrolo[1,2-b][1,2,4]triazol-2-yl]sulfinyl]acetonitrile], the Ki was 18 nM.

On to `[O-][S@+](c1nc2n(n1)[C@H](c1ccccc1)CC2)C(F)F` [Example 11, (5S)-2-[(R)-difluoromethylsulfinyl]-5-phenyl-6,7-dihydro-5H-pyrrolo[1,2-b][1,2,4]triazole], for which the Ki was determined as 10 nM.

Turning to `O=S(=O)(Cc1ccccc1)c1nc2n(n1)[C@H](c1ccccc1)C[C@@H]2F` (single isomer, unassigned) [Example 19], the Ki is 15 nM.

Take `CC[S+]([O-])c1nc2n(n1)[C@H](c1ccccc1)C[C@@H]2F` (stereo partly drawn) [Example 107, (5S,7S)-2-ethylsulfinyl-7-fluoro-5-phenyl-6,7-dihydro-5H-pyrrolo[1,2-b][1,2,4]triazole]: the Ki stood at 34 nM.

`CS(=O)(=O)c1nc2n(n1)C(c1ccccc1)CC2` (racemic) [Example 9] had a Ki of 1040 nM.

Regarding `[O-][S@+](c1nc2n(n1)[C@H](c1ccccc1)C[C@@H]2F)C1CC1` [Example 29, (5S,7S)-2-[(S)-cyclopropylsulfinyl]-7-fluoro-5-phenyl-6,7-dihydro-5H-pyrrolo[1,2-b][1,2,4]triazole], the Ki was 4 nM.

For the compound `O=S(=O)(c1nc2n(n1)[C@H](c1cc(F)ccc1F)C[C@@H]2F)C1CC1F` (stereo in doubt) [Example 201, (5S,7S)-5-(2,5-difluorophenyl)-7-fluoro-2-[(1S,2S)-2-fluorocyclopropyl]sulfonyl-6,7-dihydro-5H-pyrrolo[1,2-b][1,2,4]triazole], the Ki was determined as 25 nM.

In turn, `CC[S@+]([O-])c1nc2n(n1)[C@H](c1ccccc1)CC2` [Example 3, (5S)-2-[(S)-ethylsulfinyl]-5-phenyl-6,7-dihydro-5H-pyrrolo[1,2-b][1,2,4]triazole] registered a Ki of 162 nM.

Regarding `O=S(=O)(c1nc2n(n1)[C@H](c1ccccc1)C[C@@H]2F)[C@H]1C[C@H](F)C1` (single isomer, unassigned) [Example 164], the Ki is less than 5 nM.

As for `[O-][S@+](CF)c1nc2n(n1)[C@H](c1cc(F)ccc1F)C[C@@H]2F` (single isomer, unassigned) [Example 79], the Ki stood at 190 nM.

Take `O=S(=O)(c1nc2n(n1)[C@H](c1cc(F)cc(F)c1F)C[C@@H]2F)C1CC1` (single isomer, unassigned) [Example 39]: the Ki worked out at 6 nM.

As for `O=S(=O)(c1nc2n(n1)[C@H](c1ccccc1F)C[C@@H]2F)C1CC1F` (stereo in doubt) [Example 206, (5S,7S)-7-fluoro-5-(2-fluorophenyl)-2-[(1R,2R)-2-fluorocyclopropyl]sulfonyl-6,7-dihydro-5H-pyrrolo[1,2-b][1,2,4]triazole], the Ki worked out at 10 nM.

Take `O=S(=O)(c1nc2n(n1)[C@H](c1cccc(Cl)c1F)C[C@@H]2F)C1CC1` (single isomer, unassigned) [Example 46]: the Ki was found to be 20 nM.

Compound `COCS(=O)(=O)c1nc2n(n1)[C@H](c1ccccc1)C[C@@H]2F` (single isomer, unassigned) [Example 116] showed a Ki of 170 nM.

As for `CC(C)[S+]([O-])c1nc2n(n1)[C@H](c1ccccc1)C[C@@H]2F` (stereo partly drawn) [Example 109, (5S,7S)-7-fluoro-2-isopropylsulfinyl-5-phenyl-6,7-dihydro-5H-pyrrolo[1,2-b][1,2,4]triazole], the Ki was determined as 19 nM.

Consider `N#CC[S@@+]([O-])c1nc2n(n1)[C@H](c1ccccc1F)C[C@@H]2F` (single isomer, unassigned) [Example 96], for which the Ki was determined as 3 nM.

`N#C[C@@H]1C[C@H]1S(=O)(=O)c1nc2n(n1)[C@H](c1ccccc1)C[C@@H]2F` [Example 212, (1S,2R)-2-[[(5S,7S)-7-fluoro-5-phenyl-6,7-dihydro-5H-pyrrolo[1,2-b][1,2,4]triazol-2-yl]sulfonyl]cyclopropanecarbonitrile] came in with a Ki of 11 nM.

As to `CS(=O)(=O)c1nc2n(n1)[C@H](c1ccccc1F)CC2` (single isomer, unassigned) [Example 7], the Ki worked out at 250 nM.

Take `O=S(=O)(c1nc2n(n1)[C@H](c1ccccc1)C[C@@H]2F)[C@H]1C[C@@H]1C(F)(F)F` (mixture of isomers) [Example 163, (5S,7S)-7-fluoro-5-phenyl-2-[rac-(1S,2R)-2-(trifluoromethyl)cyclopropyl]sulfonyl-6,7-dihydro-5H-pyrrolo[1,2-b][1,2,4]triazole]: the Ki was 7 nM.

For the compound `O=S(=O)(c1nc2n(n1)[C@H](c1cc(F)ccc1F)C[C@@H]2F)C(F)(F)F` (single isomer, unassigned) [Example 138], the Ki was less than 5 nM.

For `O=S(=O)(c1nc2n(n1)[C@H](c1cc(F)ccc1F)C[C@@H]2F)C(F)F` (single isomer, unassigned) [Example 67], the Ki was found to be 5 nM.
